Data taken from ChEMBL document CHEMBL1130217, “Use of a pharmacophore model for the design of EGF-R tyrosine kinase inhibitors: 4-(phenylamino)pyrazolo[3,4-d]pyrimidines” (J Med Chem, 1997).
pIC50: −log10 of the molar value. Several values for one entry are separate records, joined by “and”; a condition that tells them apart may be missing. Equal entries are not always repeated.

Experiments:
[1] = target: T1, Proto-oncogene tyrosine-protein kinase Src (Homo sapiens, UniProt P12931); experiment: Inhibitory activity against c-Src tyrosine kinase
T1 sequence (P12931 2-536 limits assumed): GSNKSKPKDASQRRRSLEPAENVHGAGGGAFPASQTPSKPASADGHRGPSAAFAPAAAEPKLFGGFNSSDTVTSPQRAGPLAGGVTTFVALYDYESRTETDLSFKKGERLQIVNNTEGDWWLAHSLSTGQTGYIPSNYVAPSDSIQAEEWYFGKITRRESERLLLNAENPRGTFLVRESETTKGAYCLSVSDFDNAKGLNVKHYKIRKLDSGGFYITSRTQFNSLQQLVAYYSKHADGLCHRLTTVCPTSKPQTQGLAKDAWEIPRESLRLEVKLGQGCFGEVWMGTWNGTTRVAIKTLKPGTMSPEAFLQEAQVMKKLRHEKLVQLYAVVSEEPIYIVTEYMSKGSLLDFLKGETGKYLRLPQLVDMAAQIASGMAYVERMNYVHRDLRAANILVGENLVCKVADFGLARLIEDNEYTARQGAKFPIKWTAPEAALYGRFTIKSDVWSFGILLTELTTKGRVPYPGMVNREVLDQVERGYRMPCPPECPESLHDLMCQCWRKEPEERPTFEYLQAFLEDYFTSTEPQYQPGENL

[2] = target: Protein kinase C alpha type (Homo sapiens, UniProt P17252); experiment: Inhibitory activity against protein kinase C alpha […] kinase.
[3] = target: Cyclin-dependent kinase 1 (Homo sapiens, UniProt P06493); experiment: Inhibitory activity against CDK1 Ser/Thr kinase
Cyclin-dependent kinase 1, sequence (P06493 whole entry): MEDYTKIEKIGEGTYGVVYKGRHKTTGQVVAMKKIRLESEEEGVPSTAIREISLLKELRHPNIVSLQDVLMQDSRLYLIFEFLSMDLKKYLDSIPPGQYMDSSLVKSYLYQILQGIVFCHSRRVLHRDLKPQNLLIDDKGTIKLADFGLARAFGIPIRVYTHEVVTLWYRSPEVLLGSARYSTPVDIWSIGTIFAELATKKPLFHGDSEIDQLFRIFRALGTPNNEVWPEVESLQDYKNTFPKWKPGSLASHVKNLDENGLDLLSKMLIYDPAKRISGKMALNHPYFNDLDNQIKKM

[4] = target: Tyrosine-protein kinase ABL1 (Homo sapiens, UniProt P00519)
Tyrosine-protein kinase ABL1, sequence (P00519 whole entry, looked up): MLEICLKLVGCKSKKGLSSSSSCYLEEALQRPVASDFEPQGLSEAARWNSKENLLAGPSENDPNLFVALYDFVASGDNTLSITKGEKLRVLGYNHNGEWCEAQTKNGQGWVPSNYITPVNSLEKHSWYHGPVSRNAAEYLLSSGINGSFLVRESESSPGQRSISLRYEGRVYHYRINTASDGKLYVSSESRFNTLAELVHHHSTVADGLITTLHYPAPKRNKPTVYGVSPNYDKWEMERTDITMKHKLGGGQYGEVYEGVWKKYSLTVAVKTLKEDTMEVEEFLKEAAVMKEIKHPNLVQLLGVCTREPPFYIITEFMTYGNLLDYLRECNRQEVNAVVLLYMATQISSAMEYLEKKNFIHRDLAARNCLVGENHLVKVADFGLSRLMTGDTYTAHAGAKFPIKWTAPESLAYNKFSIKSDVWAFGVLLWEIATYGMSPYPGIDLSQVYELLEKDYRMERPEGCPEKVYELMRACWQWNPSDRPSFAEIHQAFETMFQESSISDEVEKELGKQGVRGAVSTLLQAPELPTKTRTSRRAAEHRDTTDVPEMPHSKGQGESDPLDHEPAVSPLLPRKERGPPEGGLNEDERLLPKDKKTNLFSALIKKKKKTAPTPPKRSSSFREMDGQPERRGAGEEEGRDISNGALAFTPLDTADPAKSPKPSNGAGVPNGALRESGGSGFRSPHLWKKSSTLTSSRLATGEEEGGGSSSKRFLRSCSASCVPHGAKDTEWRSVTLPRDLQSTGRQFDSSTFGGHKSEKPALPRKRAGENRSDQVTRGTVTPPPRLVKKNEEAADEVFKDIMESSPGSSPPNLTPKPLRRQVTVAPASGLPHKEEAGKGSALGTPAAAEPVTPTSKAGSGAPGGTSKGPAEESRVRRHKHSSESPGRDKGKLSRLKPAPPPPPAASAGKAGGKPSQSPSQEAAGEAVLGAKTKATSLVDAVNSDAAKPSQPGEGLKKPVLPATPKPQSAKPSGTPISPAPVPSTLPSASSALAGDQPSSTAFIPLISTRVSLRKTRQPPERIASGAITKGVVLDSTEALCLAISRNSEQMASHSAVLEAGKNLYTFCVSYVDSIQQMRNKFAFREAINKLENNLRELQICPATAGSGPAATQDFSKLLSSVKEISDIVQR
Description: Inhibitory activity against v-Abl tyrosine kinase

Balb/MK [5] = experiment: Inhibition of proliferation of EGF-dependent BALB/MK cells.; format: functional, cell-based; conditions: Mus musculus
[6] = target: T2, Epidermal growth factor receptor (Homo sapiens, UniProt P00533); experiment: Inhibition of EGF-stimulated tyrosine phosphorylation in A431 cells.
T2 sequence (P00533 whole entry): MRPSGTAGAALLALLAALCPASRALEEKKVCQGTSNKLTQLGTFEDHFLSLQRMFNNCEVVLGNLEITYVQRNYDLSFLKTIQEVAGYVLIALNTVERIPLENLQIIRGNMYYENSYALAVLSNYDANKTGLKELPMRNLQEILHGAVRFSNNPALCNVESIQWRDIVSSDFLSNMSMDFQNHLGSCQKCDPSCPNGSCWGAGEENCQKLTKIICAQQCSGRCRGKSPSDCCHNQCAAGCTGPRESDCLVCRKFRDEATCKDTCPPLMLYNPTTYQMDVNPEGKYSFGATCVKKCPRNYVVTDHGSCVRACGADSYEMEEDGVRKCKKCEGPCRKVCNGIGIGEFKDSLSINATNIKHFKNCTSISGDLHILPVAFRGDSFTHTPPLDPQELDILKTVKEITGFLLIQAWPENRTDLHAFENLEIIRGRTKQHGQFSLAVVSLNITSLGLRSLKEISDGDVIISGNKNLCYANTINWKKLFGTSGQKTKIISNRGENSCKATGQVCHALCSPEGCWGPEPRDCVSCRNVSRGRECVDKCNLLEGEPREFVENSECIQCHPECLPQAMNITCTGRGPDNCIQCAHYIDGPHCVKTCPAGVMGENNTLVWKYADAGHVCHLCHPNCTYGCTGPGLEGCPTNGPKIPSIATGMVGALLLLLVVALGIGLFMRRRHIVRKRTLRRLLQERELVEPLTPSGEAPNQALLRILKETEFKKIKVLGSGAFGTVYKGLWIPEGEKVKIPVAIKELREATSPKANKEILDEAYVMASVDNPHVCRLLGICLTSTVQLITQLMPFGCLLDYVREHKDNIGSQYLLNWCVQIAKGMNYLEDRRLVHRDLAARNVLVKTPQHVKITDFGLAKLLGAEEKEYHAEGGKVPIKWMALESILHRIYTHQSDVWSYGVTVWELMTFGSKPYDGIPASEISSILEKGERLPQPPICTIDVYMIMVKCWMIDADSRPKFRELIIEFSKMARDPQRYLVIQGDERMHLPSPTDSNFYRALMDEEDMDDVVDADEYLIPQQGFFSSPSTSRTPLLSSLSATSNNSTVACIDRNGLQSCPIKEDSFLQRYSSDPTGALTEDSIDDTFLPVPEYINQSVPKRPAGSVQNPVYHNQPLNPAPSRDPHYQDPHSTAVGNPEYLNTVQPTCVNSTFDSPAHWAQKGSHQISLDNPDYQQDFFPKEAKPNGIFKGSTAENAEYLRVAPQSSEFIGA

[7] = target: Platelet-derived growth factor receptor (Homo sapiens, UniProt P09619+P16234); experiment: Inhibition of PDGF stimulated tyrosine phosphorylation in BALB/c3t3 cells.
[8] = target: T2, Epidermal growth factor receptor
Description: Inhibitory activity against epidermal growth factor receptor tyrosine kinase.

[9] = target: T1, Proto-oncogene tyrosine-protein kinase Src; experiment: Inhibition of c-Src tyrosine kinase
A-431 [10] = experiment: In vivo activity against A431 xenografts in mice at 12.5 mg/kg peroral dose; format: functional; conditions: route oral
A-431 [11] = experiment: In vivo activity against A431 xenografts in mice at 50 mg/kg ip dose; format: functional; conditions: route intraperitoneal
A-431 [12] = experiment: In vivo activity against A431 xenografts in mice at 12.5 mg/kg ip dose; format: functional; conditions: route intraperitoneal
Balb/MK [13] = experiment: Inhibition of proliferation of EGF-dependent BALB/MK cells; format: functional, cell-based; conditions: Mus musculus

Row | Compound | pIC50 [1] | pIC50 [2] | pIC50 [3] | pIC50 [4] | pIC50 (Balb/MK [5]) | pIC50 [6] | pIC50 [7] | pIC50 [8] | pIC50 [9] | T/C (A-431 [10]) [%] | T/C (A-431 [11]) | T/C (A-431 [12]) [%] | pIC50 (Balb/MK [13])
1 | Oc1ccc(-c2[nH]nc3ncnc(Nc4cccc(Cl)c4)c23)cc1 | 5.07 | 5.73 | 6.59 | 6.62 | 6.25 | 6.30 | < 5.00 | 8.22 | – | – | – | – | –
2 | O=[N+]([O-])c1cccc(-c2[nH]nc3ncnc(Nc4cccc(Cl)c4)c23)c1 | 5.01 | < 5.00 | < 4.00 | < 5.00 | < 4.30 | < 4.00 | < 5.00 | 6.57 | – | – | – | – | –
3 | Clc1cccc(Nc2[nH]cnc3nnc(-c4ccccc4)c2-3)c1 | – | < 5.00 | 5.55 | 5.42 | 6.09 | 7.52 | < 5.00 | 7.72 | < 5.00 | – | – | – | –
4 | Clc1cccc(Nc2[nH]nc3ncnc(NCc4ccccc4)c23)c1 | < 5.00 | 5.35 | 5.05 | < 5.00 | 4.30 | 5.82 | < 5.00 | 6.06 | – | – | – | – | –
5 | Cc1cccc(Nc2ncnc3[nH]nc(Nc4cccc(Cl)c4)c23)c1 | – | 5.33 | – | 5.78 | 5.57 | 6.82 | < 5.00 | 6.89 | 5.09 | 44 | 21% and 23% | 27 | –
6 | Clc1cccc(Nc2[nH]nc3ncnc(Nc4cccc(Br)c4)c23)c1 | – | 5.42 | – | 5.87 | 5.84 | > 6.10 | < 5.00 | 6.89 | < 5.00 | – | – | – | –
7 | Cc1c(C)n(C)c2ncnc(Nc3cccc(Cl)c3)c12 | – | – | – | – | – | – | – | 3.35 | – | – | – | – | –
8 | CC(C)(C)OC(=O)Nc1ccc(Nc2[nH]nc3ncnc(Nc4cccc(Cl)c4)c23)cc1 | < 5.00 | < 5.00 | 4.24 | < 5.00 | < 5.00 | < 4.00 | < 5.00 | < 5.00 | – | – | – | – | –
9 | COc1cccc(Nc2[nH]nc3ncnc(Nc4cccc(Cl)c4)c23)c1 | 5.11 | 5.33 | 5.37 | 5.47 | 6.02 | 6.10 | < 5.00 | 8.10 | – | – | – | – | –
10 | Nc1[nH]cnc2nnc(Nc3cccc(Cl)c3)c1-2 | 5.22 | 4.62 | – | 6.39 | 4.85 | 4.46 | < 5.00 | 6.80 | – | – | – | – | –
11 | Clc1cccc(Nc2[nH]nc3ncnc(Nc4ccccc4)c23)c1 | 5.65 | 5.11 | – | 5.87 | 5.59 | 6.00 | < 5.00 | 7.08 | – | – | – | – | –
12 | Clc1cccc(Nc2[nH]cnc3nnc(NCc4ccccc4)c2-3)c1 | < 5.00 | 5.00 | 5.13 | 5.18 | 6.52 | 8.52 | < 5.00 | 8.15 | – | – | – | – | –
13 | Oc1cccc(Nc2[nH]nc3ncnc(Nc4cccc(Cl)c4)c23)c1 | 6.66 | 6.25 | 5.52 | 6.59 | 6.34 | 8.40 | < 5.00 | 9.00 | – | – | – | – | –
14 | Nc1nc(N)c2c(Nc3cccc(Cl)c3)[nH]nc2n1 | 5.22 | 4.62 | – | 6.39 | 5.54 | 5.05 | < 5.00 | 6.66 | – | – | – | – | –
15 | Oc1ccc(Nc2[nH]nc3ncnc(Nc4cccc(Cl)c4)c23)cc1 | 6.40 | < 6.00 | < 6.00 | 6.82 | 5.97 | 7.40 | < 5.00 | 8.10 | – | – | – | – | –
16 | Nc1ncnc2c1c(-c1ccccc1)nn2-c1ccccc1 | – | < 4.00 | – | < 5.00 | – | – | < 5.00 | 6.10 | – | – | – | – | < 4.30
17 | COc1ccc(CNc2[nH]nc3ncnc(Nc4cccc(Cl)c4)c23)cc1 | < 5.00 | < 4.00 | 5.30 | < 5.00 | 6.07 | 7.70 | < 5.00 | 8.15 | – | – | – | – | –

Row | Compound | pIC50 [1] | pIC50 [2] | pIC50 [3] | pIC50 [4] | pIC50 (Balb/MK [5]) | pIC50 [6] | pIC50 [7] | pIC50 [8] | pIC50 [9] | T/C (A-431 [10]) [%] | T/C (A-431 [11]) | T/C (A-431 [12]) [%] | pIC50 (Balb/MK [13])
18 | COc1ccc(Nc2[nH]nc3ncnc(Nc4cccc(Cl)c4)c23)cc1 | < 5.00 | 4.72 | 5.24 | < 5.00 | 5.99 | 5.82 | 5.00 | 7.52 | – | – | – | – | –
19 | COc1cccc(CNc2[nH]nc3ncnc(Nc4cccc(Cl)c4)c23)c1 | < 5.00 | < 4.00 | 5.51 | 5.46 | 6.09 | 6.70 | < 5.00 | 8.10 | – | – | – | – | –
20 | COc1cc2ncnc(Nc3cccc(Br)c3)c2cc1OC | 5.85 | < 4.00 | 4.00 | – | 6.70 | – | – | – | – | – | – | – | –
21 | Cc1c(C)n(-c2ccccc2)c2ncnc(N)c12 | – | – | – | – | – | – | – | 5.57 | – | – | – | – | –
22 | Oc1cccc(-c2[nH]nc3ncnc(Nc4cccc(Cl)c4)c23)c1 | 8.70 | < 5.00 | 6.70 | 6.74 | 6.00 | 5.82 | < 5.00 | 7.59 | – | – | – | – | –
23 | c1ccc(Nc2ncnc3n[nH]c(Nc4ccccc4)c23)cc1 | 4.12 | 5.16 | – | 5.71 | 5.08 | 4.92 | < 5.00 | 7.24 | – | – | – | – | –
24 | Nc1ccc(Nc2[nH]nc3ncnc(Nc4cccc(Cl)c4)c23)cc1 | 5.62 | < 6.00 | < 6.00 | 5.93 | – | – | < 5.00 | – | – | – | – | – | –
25 | CN(C)c1ccc(Nc2[nH]nc3ncnc(Nc4cccc(Cl)c4)c23)cc1 | < 5.00 | 5.54 | 6.46 | < 5.00 | 5.81 | 5.82 | 5.00 | 7.54 | – | – | – | – | –
26 | Nc1cccc(-c2[nH]nc3ncnc(Nc4cccc(Cl)c4)c23)c1 | < 5.00 | 5.82 | 6.17 | 5.51 | 6.03 | 6.10 | < 5.00 | 8.30 | – | – | – | – | –
27 | Nc1ccc(-c2[nH]nc3ncnc(Nc4cccc(Cl)c4)c23)cc1 | 5.31 | 5.44 | 5.35 | 5.44 | 6.11 | 6.10 | < 5.00 | 8.70 | – | – | – | – | –
28 | COc1ccc(-c2[nH]nc3ncnc(Nc4cccc(Cl)c4)c23)cc1 | < 5.00 | < 5.00 | < 4.00 | 4.78 | 5.80 | 5.82 | < 5.00 | 7.02 | – | – | – | – | –
29 | Clc1cccc(Nc2ncnc3n[nH]c(Nc4cccc(Cl)c4)c23)c1 | 5.28 | 5.23 | – | 5.70 | 5.85 | 6.60 | 5.00 | 6.48 | – | 41 | 25% and 31% | 46 | –
30 | Clc1cccc(CNc2[nH]nc3ncnc(Nc4cccc(Cl)c4)c23)c1 | 5.68 | < 5.00 | 4.80 | < 5.00 | 5.50 | 5.82 | < 5.00 | 7.59 | – | – | – | – | –
31 | Clc1cccc(Nc2[nH]nc3ncnc(Oc4cccc(Cl)c4)c23)c1 | < 5.00 | < 4.00 | – | < 5.00 | < 4.30 | < 4.00 | < 5.00 | 4.62 | – | – | – | – | –
32 | CC(C)(C)OC(=O)Nc1ccc(-c2[nH]nc3ncnc(Nc4cccc(Cl)c4)c23)cc1 | 5.01 | < 5.00 | – | – | 5.37 | 5.82 | < 5.00 | 6.57 | – | – | – | – | –
33 | Nc1ncnc2c1ncn2-c1ccccc1 | – | – | – | – | – | – | – | 4.82 | – | – | – | – | –
34 | Nc1ncnc2c1cnn2-c1ccccc1 | – | – | – | – | – | – | – | 5.57 | – | – | – | – | –
